ChEMBL document CHEMBL1133403 (Bioorg Med Chem Lett, 2000)
Active and inactive are the calls of the source. No cut-off for these calls is given here.

Legend:
[1] = target: T1, Androgen receptor (Homo sapiens, UniProt P10275); test: Cross-reactivity as binding to human androgen receptor (hAR); format: functional
T1 sequence (P10275 whole entry): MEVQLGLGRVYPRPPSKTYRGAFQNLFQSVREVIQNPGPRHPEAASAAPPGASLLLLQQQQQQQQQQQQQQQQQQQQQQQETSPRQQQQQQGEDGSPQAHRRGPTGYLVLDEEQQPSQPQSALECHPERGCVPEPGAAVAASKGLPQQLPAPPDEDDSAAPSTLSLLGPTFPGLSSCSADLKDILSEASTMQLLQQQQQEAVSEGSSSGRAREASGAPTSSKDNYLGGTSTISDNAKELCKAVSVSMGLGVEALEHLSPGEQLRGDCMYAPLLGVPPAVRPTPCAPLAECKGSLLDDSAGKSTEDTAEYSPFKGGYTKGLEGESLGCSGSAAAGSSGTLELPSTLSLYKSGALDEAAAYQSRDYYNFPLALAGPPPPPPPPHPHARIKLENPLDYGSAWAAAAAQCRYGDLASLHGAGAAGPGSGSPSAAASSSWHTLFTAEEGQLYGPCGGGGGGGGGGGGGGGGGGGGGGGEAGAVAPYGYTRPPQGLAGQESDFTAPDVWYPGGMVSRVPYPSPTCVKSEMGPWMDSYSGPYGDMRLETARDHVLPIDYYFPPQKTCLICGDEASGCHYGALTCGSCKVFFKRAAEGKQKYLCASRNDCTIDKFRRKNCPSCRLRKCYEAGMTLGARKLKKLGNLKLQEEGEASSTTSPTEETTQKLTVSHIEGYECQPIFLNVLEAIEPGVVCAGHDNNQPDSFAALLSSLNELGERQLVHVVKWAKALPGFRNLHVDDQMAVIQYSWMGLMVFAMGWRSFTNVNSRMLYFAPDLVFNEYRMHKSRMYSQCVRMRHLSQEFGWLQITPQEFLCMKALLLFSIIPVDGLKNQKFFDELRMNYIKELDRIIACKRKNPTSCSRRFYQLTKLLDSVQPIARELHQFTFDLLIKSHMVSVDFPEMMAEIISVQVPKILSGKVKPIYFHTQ

[2] = target: T2, Mineralocorticoid receptor (Homo sapiens) (UniProt P08235); test: Percent inhibition of mineralocorticoid receptor transcriptional activity at aldosterone EC50; NA=not active; format: functional
T2 sequence (whole entry): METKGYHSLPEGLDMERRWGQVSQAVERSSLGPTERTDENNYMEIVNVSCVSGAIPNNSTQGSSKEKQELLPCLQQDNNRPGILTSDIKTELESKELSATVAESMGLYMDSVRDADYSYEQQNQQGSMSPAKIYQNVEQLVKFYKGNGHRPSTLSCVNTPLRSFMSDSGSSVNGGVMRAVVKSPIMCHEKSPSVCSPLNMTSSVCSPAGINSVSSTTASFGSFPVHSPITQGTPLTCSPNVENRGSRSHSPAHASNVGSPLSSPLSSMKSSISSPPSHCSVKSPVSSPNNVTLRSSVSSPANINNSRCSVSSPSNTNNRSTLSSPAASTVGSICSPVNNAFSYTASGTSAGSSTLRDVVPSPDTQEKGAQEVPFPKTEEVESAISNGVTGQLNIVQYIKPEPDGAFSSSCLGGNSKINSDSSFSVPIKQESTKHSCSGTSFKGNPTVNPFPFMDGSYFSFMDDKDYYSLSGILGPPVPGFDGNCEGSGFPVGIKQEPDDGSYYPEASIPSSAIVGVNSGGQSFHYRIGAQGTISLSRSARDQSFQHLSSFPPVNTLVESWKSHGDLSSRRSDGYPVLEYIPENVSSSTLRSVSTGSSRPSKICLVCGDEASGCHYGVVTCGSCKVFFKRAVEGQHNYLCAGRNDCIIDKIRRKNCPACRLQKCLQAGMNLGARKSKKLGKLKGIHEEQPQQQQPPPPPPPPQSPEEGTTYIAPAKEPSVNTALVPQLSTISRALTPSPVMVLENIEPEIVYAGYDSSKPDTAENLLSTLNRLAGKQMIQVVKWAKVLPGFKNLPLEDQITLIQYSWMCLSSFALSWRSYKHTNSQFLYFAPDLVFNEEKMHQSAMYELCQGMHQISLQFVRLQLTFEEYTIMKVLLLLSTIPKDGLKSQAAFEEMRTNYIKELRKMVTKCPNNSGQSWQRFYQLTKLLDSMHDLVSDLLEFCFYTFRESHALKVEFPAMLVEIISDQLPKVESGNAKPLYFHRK

[3] = target: T3, Mineralocorticoid receptor (Homo sapiens, UniProt P08235); test: Cross-reactivity as binding to human mineralocorticoid receptor (hMR); NA=not active; format: functional
T3 sequence (P08235 whole entry): T2 sequence (whole entry)

[4] = target: T4, Progesterone receptor (Homo sapiens, UniProt P06401); test: Human progesterone receptor (hPR) agonist activity using cotransfection assay in CV-1 cells.; format: functional, cell-based
T4 sequence (P06401 whole entry): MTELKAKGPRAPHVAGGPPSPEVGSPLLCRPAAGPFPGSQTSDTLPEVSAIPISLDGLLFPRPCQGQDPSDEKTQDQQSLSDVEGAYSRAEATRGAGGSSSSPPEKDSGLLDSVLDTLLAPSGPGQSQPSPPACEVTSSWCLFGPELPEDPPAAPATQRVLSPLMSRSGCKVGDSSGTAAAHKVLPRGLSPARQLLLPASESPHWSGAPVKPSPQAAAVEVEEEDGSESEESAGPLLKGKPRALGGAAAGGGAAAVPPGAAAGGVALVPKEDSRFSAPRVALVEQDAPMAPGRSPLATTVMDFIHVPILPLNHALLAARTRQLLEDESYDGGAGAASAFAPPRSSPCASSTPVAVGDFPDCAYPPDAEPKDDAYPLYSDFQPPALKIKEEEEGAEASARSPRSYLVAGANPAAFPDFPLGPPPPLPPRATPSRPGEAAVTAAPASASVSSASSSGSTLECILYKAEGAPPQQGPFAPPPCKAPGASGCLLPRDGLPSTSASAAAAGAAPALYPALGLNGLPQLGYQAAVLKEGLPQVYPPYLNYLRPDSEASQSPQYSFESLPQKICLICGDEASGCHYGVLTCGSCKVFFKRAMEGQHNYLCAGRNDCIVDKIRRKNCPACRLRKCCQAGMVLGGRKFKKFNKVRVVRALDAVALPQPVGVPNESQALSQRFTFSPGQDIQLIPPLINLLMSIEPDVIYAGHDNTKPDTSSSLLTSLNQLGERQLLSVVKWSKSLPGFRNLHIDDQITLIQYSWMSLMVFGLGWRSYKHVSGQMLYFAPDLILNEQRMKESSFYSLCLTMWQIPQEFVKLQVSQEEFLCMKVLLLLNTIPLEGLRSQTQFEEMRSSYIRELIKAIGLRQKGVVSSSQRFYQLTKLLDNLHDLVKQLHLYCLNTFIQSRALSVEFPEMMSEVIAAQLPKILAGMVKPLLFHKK

[5] = target: T4, Progesterone receptor; test: Antagonist activity against human progesterone receptor (hPR) in T47D human breast cancer cell line; format: functional, cell-based
[6] = target: T4, Progesterone receptor; test: Binding affinity against human progesterone receptor (hPR) in a competitive binding assay
[7] = target: T4, Progesterone receptor; test: Antagonist activity against human progesterone receptor (hPR) using cotransfection assay in CV-1 cells; format: functional, cell-based

CC1=CC(C)(C)Nc2ccc(-c3ccc([N+](=O)[O-])s3)cc21
IC50 [1]: 1460 nM | Efficacy [2]: inactive | IC50 [3]: Not Active | EC50 [4]: Not Active | IC50 [5]: 70 nM | Ki [6]: 2.6 nM | IC50 [7]: 31 nM
